Literature values in patent US8846662B2, “Benzodiazepine and/or pharmaceutical composition comprising benzodiazepine derivatives” (Dr. Franz Koehler Chemie GmbH, priority 2008, dated 2014).

Tested on: specific binding sites in the central nervous system
Settings: background statement

Structure (SMILES) | Affinity for specific binding sites in the central nervous system
O=C1Nc2ccc(Cl)cc2C(c2ccccc2Cl)=NC1O (centres unmarked) [Lorazepam, 7-chloro-5-(o-chlorophenyl)-1,3-dihydro-3-hydroxy-2H-1,4-benzodiazepin-2-one] | very high affinity
CN1C(=O)C(O)N=C(c2ccccc2Cl)c2cc(Cl)ccc21 (centres unmarked) [Lormetazepam, 9-chloro-6-(2-chlorophenyl)-4-hydroxy-2-methyl-2,5-diazabicyclo-[5.4.0]undeca-5,8,10,12-tetraen-3-one] | very high affinity
